{"source": "paper PMC3368886", "about": "“ATPase Cycle and DNA Unwinding Kinetics of RecG Helicase” (PLoS ONE, 2012)", "key": {"RecG": {"target": "T1, RecG (Thermotoga maritima, UniProt Q9WY48)", "T1 construct": "made in house", "T1 sequence (Q9WY48 1-780)": "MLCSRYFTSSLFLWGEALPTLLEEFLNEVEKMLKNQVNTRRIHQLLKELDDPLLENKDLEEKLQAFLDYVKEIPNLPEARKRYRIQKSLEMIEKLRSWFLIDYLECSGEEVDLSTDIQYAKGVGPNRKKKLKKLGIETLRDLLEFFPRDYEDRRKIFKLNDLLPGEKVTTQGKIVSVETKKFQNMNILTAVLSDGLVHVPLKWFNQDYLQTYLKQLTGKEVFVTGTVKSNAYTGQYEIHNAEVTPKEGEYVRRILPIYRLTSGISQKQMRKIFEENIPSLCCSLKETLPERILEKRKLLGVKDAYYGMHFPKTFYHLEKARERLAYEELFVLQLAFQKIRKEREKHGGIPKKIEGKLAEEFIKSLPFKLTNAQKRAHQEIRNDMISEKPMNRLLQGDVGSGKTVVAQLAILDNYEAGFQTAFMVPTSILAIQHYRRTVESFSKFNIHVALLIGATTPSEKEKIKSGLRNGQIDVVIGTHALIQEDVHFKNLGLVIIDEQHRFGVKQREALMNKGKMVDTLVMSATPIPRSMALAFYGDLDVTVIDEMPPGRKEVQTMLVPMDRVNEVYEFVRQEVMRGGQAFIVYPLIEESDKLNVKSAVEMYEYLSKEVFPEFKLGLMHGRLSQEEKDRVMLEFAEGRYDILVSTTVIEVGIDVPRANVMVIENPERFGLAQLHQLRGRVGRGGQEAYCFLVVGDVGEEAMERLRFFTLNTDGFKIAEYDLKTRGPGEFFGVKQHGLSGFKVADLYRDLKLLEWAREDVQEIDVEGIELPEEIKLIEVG", "experiment": "Stopped-flow mantATP binding in the absence of DNA", "text": "The kinetics of specific steps of the ATPase cycle were investigated in the absence of DNA, to determine which are modulated by the interaction with DNA. For the association measurements between RecG and mantATP, RecG was mixed with excess mantATP in the stopped-flow apparatus and the fluorescence followed with time. Following fitting by single exponentials, there was a linear relationship between the observed rate constant and nucleotide concentration (Figure S3A).\nAs done for the RecG⋅DNA complex, measurements were also taken with an excess of RecG over mantATP (Figure S3B). A large, relative rapid, increase in mant fluorescence was observed followed by a small gradual increase. The rate constants are consistent with those at excess mantATP. Under the same conditions of excess RecG over mantATP, mantATP cleavage (acid quench) and Pi release were measured (Figure S3B). […] The cleavage step rate constant was 4×10^−4 s^−1, ∼10^3 slower than in the presence of DNA. […] The cleavage step was greatly stimulated by DNA.\nSupplementary file pone.0038270.s003.tif: Figure S3 Kinetic measurements in the absence of DNA. (A) Association kinetics with mantATP. Dependence of the observed rate constants on mantATP concentration from mixing 0.5 µM RecG with excess mantATP under the same conditions as Figure 3. Points shown are typically an average of three individual measurements. The best linear fit gives a slope of 0.4 (±0.15) µM^−1 s^−1 and intercept 1.7 (±0.6) s^−1. (B) Fluorescence trace upon mixing 2.5 µM RecG with 0.5 µM mantATP under the conditions of Figure 4. The trace was fitted by an exponential and a slope giving rates of 0.42 (±0.12) s^−1 for the former. Note that as the fluorescence slowly increases beyond the time course, it was not possible to calibrate the ordinate. Inset: Hydrolysis and Pi release for these conditions. The circles represent single time points for a quenched-flow measurement of mantADP formation. Pi release kinetics (continuous line) were measured for the same mixture containing 10 µM MDCC-PBP. (TIF) Click here for additional data file."}, "RecG⋅DNA(A40:B40)": {"target": "T2, RecG⋅DNA(A40:B40) (Thermotoga maritima, UniProt Q9WY48)", "T2 construct": "made in house", "T2 sequence (Q9WY48 1-780)": "T1 sequence (Q9WY48 1-780)", "experiment": "Kinetic model simulation of single turnover of mantATP", "assay_type": "biochemical", "procedure": "In order to test the data obtained with mantATP for consistency, a simple kinetic model for the ATPase mechanism was used to simulate the data in Figure 4A. The model was based on the scheme in Figure 2A, but included a two-step triphosphate binding as in Figure 2B. The model assumed that Pi release is irreversible and mantADP remains bound under these conditions as its K d (<50 nM) is much less than the experimental concentrations. The difference in fluorescence intensity between protein-bound mantATP and mantADP was included in the modeling with bound mantATP representing 20% of the overall increase, as shown experimentally. The best-fit simulation is shown in Figure 4B, which gave mantATP binding at 5.7 s^−1, followed by a rapid step (“conformation change”) of 30 s^−1, hydrolysis at 0.25 s^−1 and Pi release is fast (>10 s^−1). […] There is a discrepancy with the fit to the data at long times, as the experimental traces are slightly biphasic, which could be due to a small proportion of the protein having modified activity due to damage, for example.\nData were fitted to theoretical equations using the stopped-flow software or Grafit. Kinetic simulations were performed using Berkeley Madonna (Version 8.3, University of California at Berkeley) and using Global Kinetic Explorer (Kintek). Global fits were performed using Global Kinetic Explorer."}}, "note": "pKd: −log10 of the molar value.", "data": [{"smiles": "CNc1ccccc1C(=O)O[C@H]1[C@@H](O)[C@H](n2cnc3c(N)ncnc32)O[C@@H]1COP(=O)(O)OP(=O)(O)OP(=O)(O)O", "note": "[mantATP, 2′(3′)-O-(N-methylanthraniloyl)ATP]", "values": [{"measurement": "intercept (dissociation)", "setting": "RecG; 0.5 µM RecG, excess mantATP", "value": "1.7 (±0.6) s^−1"}, {"measurement": "second order association rate constant (slope)", "setting": "RecG; 0.5 µM RecG, excess mantATP", "value": "0.4 (±0.15) µM^−1s^−1"}, {"measurement": "rate of exponential fluorescence increase", "setting": "RecG; 2.5 µM RecG with 0.5 µM mantATP", "value": "0.42 (±0.12) s^−1"}, {"measurement": "pKd", "setting": "RecG; from intercept and slope", "value": 5.37}, {"measurement": "Pi release (best-fit simulation)", "setting": "RecG⋅DNA(A40:B40)", "value": "> 10", "unit": "s⁻¹"}, {"measurement": "hydrolysis (best-fit simulation)", "setting": "RecG⋅DNA(A40:B40)", "value": 0.25, "unit": "s⁻¹"}, {"measurement": "mantATP binding (best-fit simulation)", "setting": "RecG⋅DNA(A40:B40)", "value": 5.7, "unit": "s⁻¹"}, {"measurement": "rapid step (conformation change) (best-fit simulation)", "setting": "RecG⋅DNA(A40:B40)", "value": 30, "unit": "s⁻¹"}]}]}
